Laboratory results taken from patent publication US20040258668A1 (priority 2001, published 2004).
Where two headings read alike, the source gives them in different places.

Assays:
[1] = tested on: LLC-MK2 cells infected with SeV18+SEAP/ΔF-GFP; experiment: LDH release (cell damage) from SeV-infected LLC-MK2 cells; details: for cell damage (LDH release): agents added two days after infection, at the concentration tested
Experimental: (§1) LLC-MK2 (monkey kidney-derived cells) were seeded into 6-well plates at a concentration of 5×10^5 cells/well, and then cultured in MEM (Gibco-BRL, Rockville, Md.) media containing 10% fetal bovine serum (FBS: BioWhittaker, Walkersville, Md.) at 37° C. for 24 hours in a 5% CO2 incubator. Cells were washed with PBS and infected with F-deleted SeV encoding secretion-type alkaline phosphatase (SEAP)) and green fluorescence protein (GFP) genes (SeV18+SEAP/ΔF-GFP: FIG. 1) at MOI=3. […] After infection, cell culture was continued in MEM media without serum. […] Media from each culture was collected and subsequently replaced with fresh media containing the same content every two days. Heme agglutination activity (HA activity) was measured as an indicator of virion formation; lactose dehydrogenase (LDH) quantification was measured as an indicator of cell damage; and SEAP activity was measured as an indicator of the expression level of genes carried on the vector.
(§2) HA activity was measured using the method described by Kato et al., (Kato, A. et al. , Genes Cells 1, 569-579 (1996)). That is, virus-containing media was subjected to two-fold serial dilution in a 96 round bottom well plate, such that each well contained 50 ul samples. A 50 ul solution of preserved chicken blood (COSMO BIO Co., Ltd., Tokyo, Japan), diluted to 1% with PBS, was added to each well and mixed. The mixture was incubated at 4° C. for one hour. Agglutination of red blood cells was observed, and HA activity was calculated by selecting the highest virus dilution in which agglutination was still observed. Additionally, 1 HA U was considered to be equal to 1×10^6 viruses, and values were shown as a number of viruses. […] LDH quantification was conducted using a Cytotoxicity Detection Kit (Roche, Basel, Switzerland) according to the methodin the kit. […] SEAP activities were measured using a Reporter Assay Kit-SEAP (TOYOBO, Osaka, Japan) according to kit method.
(§3) That is, LLC-MK2 was plated in a 6-well plate at a concentration of 5×10^5 cells/well, and incubated in MEM media containing 10% fetal bovine serum at 37° C. for 24 hours in a 5% CO2 incubator. […] After infection, culture was continued in MEM media without serum. […] Cultured media was recovered every two days, and at this time fresh media, either with or without 5 mM aspirin, was added. The cultures were treated with aspirin for either 0, 2, 4, 6, or 8 days, and then examined. The recovered culture media was analyzed for HA activity, LDH quantification, and SEAP activity. GFP expression and cell damage were also periodically examined using fluorescence microscopy.
(§4) The experiment was conducted as described in Example 1: LLC-MK2 was plated onto a 6-well plate at a concentration of 5×10^5 cells/well, and incubated in MEM media containing 10% fetal bovine serum at 37° C. for 24 hours in a 5% CO2 incubator. […] After infection, cells were cultured in MEM media without serum for two days, then cultured in MEM media (without serum) containing agents at the recorded concentrations. Cultured media was collected every two days and replaced with a same volume of fresh media. HA activity analysis and LDH quantitative analysis were performed on recovered culture media. GFP expression and cell damage were also periodically examined using fluorescence microscopy.

[2] = tested on: Sendai virus (SeV) vector SeV18+SEAP/ΔF-GFP; experiment: HA activity (virion formation) in culture media of SeV-infected LLC-MK2 cells; details: for SeV transcription and replication (HA activity): agents added two days after infection, SeV18+SEAP/ΔF-GFP or SeV18+/ΔF-GFP, MOI=3; for SeV transcription and replication with NO-associated agents: agent added two days after infection
Experimental: as §1, §2, §3, §4

[3] = tested on: Cytomegarovirus; details: Albrecht et al. (1987); cited from earlier work
[4] = Aspirin toxicity (LD50, estimated toxicity limit); format: in vivo; details: ⅙ of LD50
[5] = tested on: Vesicular Stomatitis virus (VSV); details: Chen et al., Virology 276 (2000); cited from earlier work
[6] = tested on: LLC-MK2 cells infected with SeV18+SEAP/ΔF-GFP; experiment: GFP expression and cell damage by fluorescence microscopy; details: 5 mM aspirin
Experimental: LLC-MK2 (monkey kidney-derived cells) were seeded into 6-well plates at a concentration of 5×10^5 cells/well, and then cultured in MEM (Gibco-BRL, Rockville, Md.) media containing 10% fetal bovine serum (FBS: BioWhittaker, Walkersville, Md.) at 37° C. for 24 hours in a 5% CO2 incubator. Cells were washed with PBS and infected with F-deleted SeV encoding secretion-type alkaline phosphatase (SEAP)) and green fluorescence protein (GFP) genes (SeV18+SEAP/ΔF-GFP: FIG. 1) at MOI=3. […] After infection, cell culture was continued in MEM media without serum. Two days after infection, the media was replaced with MEM media (without serum) containing 0.625, 1.25, 2.5, and 5 mM of aspirin, or no aspirin. […] Heme agglutination activity (HA activity) was measured as an indicator of virion formation; lactose dehydrogenase (LDH) quantification was measured as an indicator of cell damage; and SEAP activity was measured as an indicator of the expression level of genes carried on the vector.
GFP expression level and cell damage were also periodically observed using fluorescence microscopy.
That is, LLC-MK2 was plated in a 6-well plate at a concentration of 5×10^5 cells/well, and incubated in MEM media containing 10% fetal bovine serum at 37° C. for 24 hours in a 5% CO2 incubator. […] The recovered culture media was analyzed for HA activity, LDH quantification, and SEAP activity. […]

[7] = tested on: SEAP gene carried on SeV18+SEAP/ΔF-GFP
Experimental: LLC-MK2 (monkey kidney-derived cells) were seeded into 6-well plates at a concentration of 5×10^5 cells/well, and then cultured in MEM (Gibco-BRL, Rockville, Md.) media containing 10% fetal bovine serum (FBS: BioWhittaker, Walkersville, Md.) at 37° C. for 24 hours in a 5% CO2 incubator. Cells were washed with PBS and infected with F-deleted SeV encoding secretion-type alkaline phosphatase (SEAP)) and green fluorescence protein (GFP) genes (SeV18+SEAP/ΔF-GFP: FIG. 1) at MOI=3. […] After infection, cell culture was continued in MEM media without serum. Two days after infection, the media was replaced with MEM media (without serum) containing 0.625, 1.25, 2.5, and 5 mM of aspirin, or no aspirin. Media from each culture was collected and subsequently replaced with fresh media containing the same content every two days.
SEAP activities were measured using a Reporter Assay Kit-SEAP (TOYOBO, Osaka, Japan) according to kit method.

[8] = 5 mM aspirin, regardless of length of treatment
[9] = 0.625-5 mM aspirin added two days after infection

With O=C(O)Cc1ccccc1Nc1c(Cl)cccc1Cl [Diclofenac sodium] the “cell damage (LDH release)” value [1] was “enhanced cell damage” and the “SeV transcription and replication (HA activity)” value [2] was “suppressed SeV transcription and replication”.

For CC(C(=O)O)c1ccc(-c2ccccc2)c(F)c1 (centres unmarked) [Flurbiprofen], the “cell damage (LDH release)” value [1] was “only moderately reduced cell damage” and the “SeV transcription and replication (HA activity)” value [2] was “suppressed SeV transcription and replication”.

For CC(C(=O)O)c1cccc(C(=O)c2ccccc2)c1 (centres unmarked) [Ketoprofen], the “cell damage (LDH release)” value [1] was “reduced cell damage” and the “SeV transcription and replication (HA activity)” value [2] was “suppressed SeV transcription and replication”.

For Cc1cccc(Nc2ccccc2C(=O)O)c1C [Mefenamic acid], the “cell damage (LDH release)” value [1] was “enhanced cell damage” and the “SeV transcription and replication (HA activity)” value [2] was “suppressed SeV transcription and replication”.

In the case of COc1ccc(Cc2nccc3cc(OC)c(OC)cc23)cc1OC [Papaverin], the Cytomegarovirus multiplication [3] is given as “suppress Cytomegarovirus multiplication”, the “cell damage (LDH release)” value [1] is given as “enhanced cell damage” and the “SeV transcription and replication (HA activity)” value [2] is given as “suppressed SeV transcription and replication”.

In the case of CC(=O)Oc1ccccc1C(=O)O [aspirin, acetylsalicylic acid], the estimated toxicity limit [4] is listed as 300 mg/kg, the “multiplication of VSV” value [5] is listed as “suppressed the multiplication of the Vesicular Stomatitis virus (VSV)” and the “cell damage (LDH)” value ([1]; 5 mM aspirin) is listed as “Almost no cell damage was observed”. The “time after end of aspirin treatment until LDH increases” value [1, 8] was “four”, the LDH release [1, 9] was “concentration-dependent decrease in LDH release” and the “cell damage (LDH release)” value [1] was “reducing cytotoxicity”. The “nature of suppression of SeV transcription and replication” value ([6]; after withdrawal) was “transient”, the “GFP expression and cell damage during aspirin treatment” value ([6]; treatment 0-8 days) was “GFP expression is low and cell damage is not observed” and the SEAP activity ([7]; 5 mM aspirin) was “most significant decrease in activity”. For the same compound, the SEAP activity [7, 9] was “concentration-dependent decrease in SEAP activity”, the “HA activity (virion formation)” value ([2]; 5 mM aspirin added two days after infection, MOI=3, LLC-MK2) was “suppressed the increase in HA activity” and the “time after end of aspirin treatment until HA activity and virion formation increase” value [2, 8] was “two”. The “HA activity during aspirin treatment” value ([2]; 5 mM aspirin, treatment 0, 2, 4, 6 or 8 days) was “increase in HA activity was low during aspirin treatment” and the “SeV transcription and replication (HA activity)” value [2] was “suppressed SeV transcription and replication”.

In the case of COc1ccc2c(c1)c(CC(=O)O)c(C)n2C(=O)c1ccc(Cl)cc1 [indomethacin, Indomethacin], the “cell damage (LDH release)” value [1] is reported as “only moderately reduced cell damage” and the “SeV transcription and replication (HA activity)” value [2] is reported as “suppressed SeV transcription and replication”.

For O=[N+]([O-])O[C@H]1CO[C@H]2[C@@H]1OC[C@H]2O[N+](=O)[O-] [isosorbide dinitrate], the “SeV transcription and replication with NO-associated agents” value [2] was “did not significantly suppress transcription and replication”.

With O=C(NCCO[N+](=O)[O-])c1cccnc1 [nicorandil] the “SeV transcription and replication with NO-associated agents” value [2] was “did not significantly suppress transcription and replication”.
